According to patent publication US20060014726A1, “Derivatives of cyclic1, 3- propanediol phosphate and their action in differentiation therapy” (priority 2002, published 2006):
Where two headings read alike, the source gives them in different places.

Tests used:
[1] = system: PR mRNA in MCF-7 cells; assay: Quantitative RT-PCR of PR mRNA in MCF-7 cells; type: cell-based, human; conditions: 20 μM
Description: (§1) It should however be understood that the augmented expression of ER-α and PR presented in FIGS. 1-3 could have in principle originated from increase in either transcription or translation associated with the respective steroid receptor genes. Therefore the effects of long term incubation with 1,3cPP on the respective ER-α and PR mRNA levels were examined. Quantitative RT-PCR was carried out with a Light Cycler as described. […] In contrast, only 20 μM 1,3-cPP were required to induce 7-fold increase in the ER-α mRNA in T47D clone 8 cells (FIG. 4D). […]
(§2) RT-PCR was carried out on a programmable thermal controller instrument according to standard protocols, where the annealing temperatures were 58° C. for ER-α and 56° C. for PR. […] The PCR products were diluted and used to build a standard curve for the quantitative PCR which was carried out in a Light Cycler instrument (Roche Diagnostics, Mannheim, Germany). […] For each control and test sample, the amount of the constitutively expressed house keeping enzyme glyceraldehyde-3-phosphate dehydrogenase (GAPDH) mRNA was quantified by using appropriate primers and the quantity of ER-α and PR mRNA were normalized to the quantity of GAPDH mRNA in each sample. The relative amounts of ER-α and PR mRNA were expressed as normalized 1,3cPP treatment values divided by the normalized control values.

[2] = system: ER-α mRNA in MCF-7 cells; assay: Quantitative RT-PCR of ER-α mRNA in MCF-7 cells; type: cell-based, human
Description: It should however be understood that the augmented expression of ER-α and PR presented in FIGS. 1-3 could have in principle originated from increase in either transcription or translation associated with the respective steroid receptor genes. Therefore the effects of long term incubation with 1,3cPP on the respective ER-α and PR mRNA levels were examined. Quantitative RT-PCR was carried out with a Light Cycler as described. […] In contrast, only 20 μM 1,3-cPP were required to induce 7-fold increase in the ER-α mRNA in T47D clone 8 cells (FIG. 4D). The analogous data for PR are depicted for MCF-7 cells in FIGS. 5A-B where at 20 μM, there was a 3 fold increase in the normalized PR mRNA expression on the 8th day. This increase receded to about 1.5-fold by the 11th day.
MCF-7 and T47D cells were cultured and treated as described above. Total cellular RNA was extracted with TRI reagent according to the manufacturer's instructions (Molecular Research Center, Inc. Cincinnati, Ohio). Reverse transcription (RT) was performed in a total reaction mixture of 20 μl with 1-5 μg RNA by first heating to 65° C. for 5 min in the presence of 25 μg/ml Oligo (dT)12-18, and 0.5 mM deoxynucleotide triphosphates (dNTP). The RT reaction mixture was then quickly cooled on ice. […]
as §2

[3] = system: K562 cells
Description: It is known from the literature that sodium butyrate derives K562 cells into the erythroid differentiation program (Sutherland et al. 1986). Base on such an observation, the ability of 1,3-cPP alone or in combination with sodium butyrate may trigger the erythroid differentiation program manifested by hemoglobin production.
K562 cells were incubated for 5 days in the presence or absence of 10 or 50 μM 1,3cPP and 1 mM butyric acid as a differentiating agent. Quantitative measurements of hemoglobin production was determined by staining of lysed cells with benzidine-peroxide reagent. The benzidine-peroxide reagent was prepared by dissolving 3,3′,5,5′-tetramethyl benzidine in 90% acetic acid and mixing with an equal volume of freshly prepared 1% hydrogen peroxide. Cell lysate, obtained by hypotonic lysing of 5×10^4 cells in 0.1 ml distilled water, was added to 0.1 ml benzidine reagent and incubated at room temperature for 10 minutes in the dark. Absorbance was measured at 515 nm and was taken as a relative index of the hemoglobin level.

[4] = Acute toxicity testing; type: in vivo; conditions: CD-1 mice
Description: The acute toxicity of 1,3cPP was determined in CD-1 male and female mice, 8-12 weeks of age, via i.v., i.p. and p.o. routes of administration.

[5] = system: ER-α mRNA in T47D clone 8 cells; assay: Quantitative RT-PCR of ER-α mRNA in T47D clone 8 cells; type: cell-based, human; conditions: 20 μM, 6 days (FIG. 4D)
Description: as §1, §2

## O=P1(O)OCCCO1 [1,3-cPP, 1,3-cyclic propanediol phosphate]
[1]; 8th day
  increase in the normalized PR mRNA expression: 3 fold
[1]; 11th day
  increase in the normalized PR mRNA expression: about 1.5 fold
[2]; 50 μM, 11th day
  increase in the normalized ER-α mRNA transcription: 10 fold
[2]; 100 μM, day 6, normalized to GAPDH, relative to control
  increase in the normalized ER-α mRNA transcription: 6 fold
[2]; 100 μM, day 14, normalized to GAPDH, relative to control
  increase in the normalized ER-α mRNA transcription: 6 fold
[3]; K562 cells, 10 μM 1,3-cPP together with 1 mM sodium butyrate, 5 days
  baseline production of hemoglobin: more than doubling
[3]; K562 cells, 50 μM 1,3-cPP together with 1 mM sodium butyrate, 5 days
  baseline production of hemoglobin: more than tripling
[3]; K562 cells, 1,3-cPP alone, 5 days
  hemoglobin production: almost no effect
[3]; K562 cells, all groups
  cell viability: over 85%
[3]; K562 cells, combination with sodium butyrate (FIG. 7)
  interaction with sodium butyrate on hemoglobin production and proliferation: synergizes with sodium butyrate
[3]; K562 cells, fifth day, most prominently 50 μM 1,3-cPP together with 1 mM sodium butyrate
  total cell number: concurrent decrease
[4]; i.p., doses of 0.25-5.0 g/kg
  acute 24 hr toxicity, pharmacotoxic effects: no pharmacotoxic effects were observed
[4]; i.v., i.p. and p.o.
  toxicity classification following conventional criteria: practically non-toxic substance
[4]; i.v., up to 1 g/kg
  acute toxicity, changes in body weight and behavior: no changes in body weight nor in behavior
[4]; p.o., up to 10 g/kg
  acute toxicity, changes in body weight and behavior: no changes in body weight nor in behavior
[5]
  increase in the ER-α mRNA: 7 fold
